Reference: the supplement of paper PMC10307832

Assays:
Assay in all cases: relative viability (nuclei count vs DMSO), 5 days (fraction); higher = more cells survive
HCC-366 = system: HCC-366
Method in brief: (§1)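 Lung cancer cell lines were pin-tool dosed in 1536-well plates on the day after seeding, with either a lone drug or a fixed anchor-drug dose plus five library-drug doses (not always all listed) in √10 steps. Nuclei were counted on 4× images after 5 days. Relative viability is the ratio of treated-well to vehicle-well nuclei counts, with each value a median of duplicate plates.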

EPLC-272H = system: EPLC-272H
Method in brief: as §1

LU99A = system: LU99A
Method in brief: as §1

NCI-H2085 = system: NCI-H2085
Method in brief: as §1

NCI-H2126 = system: NCI-H2126
Method in brief: as §1

SW 1573 = system: SW 1573
Method in brief: as §1

RERF-LC-KJ = system: RERF-LC-KJ
Method in brief: as §1

LXF-289 = system: LXF-289
Method in brief: as §1

HCC-827 = system: HCC-827
Method in brief: as §1

NCI-H1666 = system: NCI-H1666
Method in brief: as §1

HCC-78 = system: HCC-78
Method in brief: as §1

HCC-44 = system: HCC-44
Method in brief: as §1

NCI-H23 = system: NCI-H23
Method in brief: as §1

ChaGo-K-1 = system: ChaGo-K-1
Method in brief: as §1

EMC-BAC-2 = system: EMC-BAC-2
Method in brief: as §1

NCI-H2405 = system: NCI-H2405
Method in brief: as §1

LOU-NH91 = system: LOU-NH91
Method in brief: as §1

SK-LU-1 = system: SK-LU-1
Method in brief: as §1

LK-2 = system: LK-2
Method in brief: as §1

NCI-H3122 = system: NCI-H3122
Method in brief: as §1

NCI-H1975 = system: NCI-H1975
Method in brief: as §1

## Clc1ccc(Nc2nnc(Cc3ccncc3)c3ccccc23)cc1 [Vatalanib] + CC1(C)CCC(c2ccc(Cl)cc2)=C(CN2CCN(c3ccc(C(=O)NS(=O)(=O)c4ccc(N[C@H](CCN5CCOCC5)CSc5ccccc5)c(S(=O)(=O)C(F)(F)F)c4)cc3)CC2)C1 [Navitoclax] (partner 0.5 µM)
HCC-366; first compound 0.04 µM
  relative viability: 1.09
HCC-366; first compound 0.1265 µM
  relative viability: 0.816
HCC-366; first compound 0.4 µM
  relative viability: 1.25
HCC-366; first compound 1.265 µM
  relative viability: 1.03
HCC-366; first compound 4 µM
  relative viability: 0.991
EPLC-272H; first compound 0.04 µM
  relative viability: 1.08
EPLC-272H; first compound 0.1265 µM
  relative viability: 1.04
EPLC-272H; first compound 0.4 µM
  relative viability: 1.05
EPLC-272H; first compound 1.265 µM
  relative viability: 1.05
EPLC-272H; first compound 4 µM
  relative viability: 1.13
LU99A; first compound 0.04 µM
  relative viability: 0.763
LU99A; first compound 0.1265 µM
  relative viability: 0.719
LU99A; first compound 0.4 µM
  relative viability: 1.11
LU99A; first compound 1.265 µM
  relative viability: 0.855
LU99A; first compound 4 µM
  relative viability: 0.859
NCI-H2085; first compound 0.04 µM
  relative viability: 1.12
NCI-H2085; first compound 0.1265 µM
  relative viability: 1.25
NCI-H2085; first compound 0.4 µM
  relative viability: 1.29
NCI-H2085; first compound 1.265 µM
  relative viability: 1.05
NCI-H2085; first compound 4 µM
  relative viability: 1.01
NCI-H2126; first compound 0.04 µM
  relative viability: 0.834
NCI-H2126; first compound 0.1265 µM
  relative viability: 0.914
NCI-H2126; first compound 0.4 µM
  relative viability: 0.851
NCI-H2126; first compound 1.265 µM
  relative viability: 0.801
NCI-H2126; first compound 4 µM
  relative viability: 0.76
SW 1573; first compound 0.04 µM
  relative viability: 0.938
SW 1573; first compound 0.1265 µM
  relative viability: 1.03
SW 1573; first compound 0.4 µM
  relative viability: 1.02
SW 1573; first compound 1.265 µM
  relative viability: 0.872
SW 1573; first compound 4 µM
  relative viability: 0.969
RERF-LC-KJ; first compound 0.04 µM
  relative viability: 1.1
RERF-LC-KJ; first compound 0.1265 µM
  relative viability: 0.959
RERF-LC-KJ; first compound 0.4 µM
  relative viability: 0.951
RERF-LC-KJ; first compound 1.265 µM
  relative viability: 0.79
RERF-LC-KJ; first compound 4 µM
  relative viability: 0.822
LXF-289; first compound 0.04 µM
  relative viability: 0.971
LXF-289; first compound 0.1265 µM
  relative viability: 0.901
LXF-289; first compound 0.4 µM
  relative viability: 0.989
LXF-289; first compound 1.265 µM
  relative viability: 0.852
LXF-289; first compound 4 µM
  relative viability: 0.899
HCC-827; first compound 0.04 µM
  relative viability: 1.01
HCC-827; first compound 0.1265 µM
  relative viability: 0.982
HCC-827; first compound 0.4 µM
  relative viability: 1.06
HCC-827; first compound 1.265 µM
  relative viability: 0.994
HCC-827; first compound 4 µM
  relative viability: 0.97
NCI-H1666; first compound 0.04 µM
  relative viability: 0.958
NCI-H1666; first compound 0.1265 µM
  relative viability: 0.93
NCI-H1666; first compound 0.4 µM
  relative viability: 0.829
NCI-H1666; first compound 1.265 µM
  relative viability: 0.963
NCI-H1666; first compound 4 µM
  relative viability: 0.845
HCC-78; first compound 0.04 µM
  relative viability: 0.714
HCC-78; first compound 0.1265 µM
  relative viability: 0.76
HCC-78; first compound 0.4 µM
  relative viability: 0.888
HCC-78; first compound 4 µM
  relative viability: 0.72
HCC-44; first compound 0.04 µM
  relative viability: 0.933
HCC-44; first compound 0.1265 µM
  relative viability: 0.916
HCC-44; first compound 0.4 µM
  relative viability: 0.93
HCC-44; first compound 1.265 µM
  relative viability: 0.915
HCC-44; first compound 4 µM
  relative viability: 0.919
NCI-H23; first compound 0.04 µM
  relative viability: 0.772
NCI-H23; first compound 0.1265 µM
  relative viability: 0.699
NCI-H23; first compound 0.4 µM
  relative viability: 0.841
NCI-H23; first compound 1.265 µM
  relative viability: 0.745
NCI-H23; first compound 4 µM
  relative viability: 0.825
ChaGo-K-1; first compound 0.04 µM
  relative viability: 0.565
ChaGo-K-1; first compound 0.1265 µM
  relative viability: 0.94
ChaGo-K-1; first compound 1.265 µM
  relative viability: 0.934
ChaGo-K-1; first compound 4 µM
  relative viability: 1.16
EMC-BAC-2; first compound 0.04 µM
  relative viability: 1.18
EMC-BAC-2; first compound 0.1265 µM
  relative viability: 1.12
EMC-BAC-2; first compound 0.4 µM
  relative viability: 1.23
EMC-BAC-2; first compound 1.265 µM
  relative viability: 1.15
EMC-BAC-2; first compound 4 µM
  relative viability: 1.14
NCI-H2405; first compound 0.04 µM
  relative viability: 0.856
NCI-H2405; first compound 0.1265 µM
  relative viability: 0.726
NCI-H2405; first compound 1.265 µM
  relative viability: 0.728
NCI-H2405; first compound 4 µM
  relative viability: 0.713
LOU-NH91; first compound 0.04 µM
  relative viability: 0.703
LOU-NH91; first compound 0.1265 µM
  relative viability: 0.558
LOU-NH91; first compound 0.4 µM
  relative viability: 0.61
LOU-NH91; first compound 1.265 µM
  relative viability: 0.612
LOU-NH91; first compound 4 µM
  relative viability: 0.61
SK-LU-1; first compound 0.04 µM
  relative viability: 0.755
SK-LU-1; first compound 0.1265 µM
  relative viability: 0.594
SK-LU-1; first compound 0.4 µM
  relative viability: 0.742
SK-LU-1; first compound 1.265 µM
  relative viability: 0.832
SK-LU-1; first compound 4 µM
  relative viability: 0.82
LK-2; first compound 0.04 µM
  relative viability: 0.883
LK-2; first compound 0.1265 µM
  relative viability: 0.824
LK-2; first compound 1.265 µM
  relative viability: 0.955
LK-2; first compound 4 µM
  relative viability: 0.807
NCI-H3122; first compound 0.04 µM
  relative viability: 1.03
NCI-H3122; first compound 0.1265 µM
  relative viability: 1.02
NCI-H3122; first compound 0.4 µM
  relative viability: 1
NCI-H3122; first compound 1.265 µM
  relative viability: 1.06
NCI-H3122; first compound 4 µM
  relative viability: 1.02
NCI-H1975; first compound 0.04 µM
  relative viability: 1.09
NCI-H1975; first compound 0.1265 µM
  relative viability: 1
NCI-H1975; first compound 0.4 µM
  relative viability: 1.17
NCI-H1975; first compound 1.265 µM
  relative viability: 0.945
NCI-H1975; first compound 4 µM
  relative viability: 0.815
